Assay results taken from patent publication US10463658B2, “Method of inhibiting FLT3 kinase” (AROG Pharmaceuticals, LLC, priority 2013, dated 2019).
pIC50, pKd: −log10 of the molar value.

Experiments:
FLT3 ITD = target: T1, FLT3 ITD (Homo sapiens, UniProt P36888); test: Inhibition of FLT3-ITD phosphorylation by western blot in BaF3 cells transduced to express FLT3; assay type: cell-based; conditions: Ba/F3 FLT3-ITD cells, tosylate salt, read-out: IC50, inhibition of phosphorylation of the FLT3-ITD receptor
T1 sequence (P36888 1-993): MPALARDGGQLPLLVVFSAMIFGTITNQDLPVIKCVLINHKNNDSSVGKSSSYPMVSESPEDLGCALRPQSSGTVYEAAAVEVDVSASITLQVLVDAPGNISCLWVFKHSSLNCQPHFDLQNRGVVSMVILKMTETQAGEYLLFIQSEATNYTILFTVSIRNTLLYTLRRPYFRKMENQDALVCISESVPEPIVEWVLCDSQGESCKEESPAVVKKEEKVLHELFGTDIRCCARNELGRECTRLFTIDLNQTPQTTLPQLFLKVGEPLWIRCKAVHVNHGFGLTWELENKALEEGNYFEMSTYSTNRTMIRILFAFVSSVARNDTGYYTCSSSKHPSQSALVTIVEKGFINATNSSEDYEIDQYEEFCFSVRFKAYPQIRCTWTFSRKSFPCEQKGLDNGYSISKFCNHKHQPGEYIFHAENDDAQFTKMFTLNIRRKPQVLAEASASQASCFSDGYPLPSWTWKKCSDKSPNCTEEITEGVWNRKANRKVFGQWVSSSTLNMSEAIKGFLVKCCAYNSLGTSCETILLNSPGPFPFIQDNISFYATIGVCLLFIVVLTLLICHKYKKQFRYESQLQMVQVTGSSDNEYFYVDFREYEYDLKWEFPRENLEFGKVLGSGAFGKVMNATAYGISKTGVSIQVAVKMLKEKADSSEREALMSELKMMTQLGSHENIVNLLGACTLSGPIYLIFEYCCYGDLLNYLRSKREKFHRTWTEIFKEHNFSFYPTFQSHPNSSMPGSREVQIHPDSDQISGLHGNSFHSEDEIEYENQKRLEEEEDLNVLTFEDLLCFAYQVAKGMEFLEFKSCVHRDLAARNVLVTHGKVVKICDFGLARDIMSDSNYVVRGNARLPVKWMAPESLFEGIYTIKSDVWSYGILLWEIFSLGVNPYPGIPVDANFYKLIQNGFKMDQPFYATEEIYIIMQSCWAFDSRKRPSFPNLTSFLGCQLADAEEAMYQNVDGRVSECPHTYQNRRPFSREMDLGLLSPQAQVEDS
Procedure: (§1) The ability of the tosylate (toluenesulfonate) salt of CP-673,451 to inhibit phosphorylated FLT3 was determined using cell lines expressing FLT3-ITD, including Molm-13 (a human acute myeloid leukemia cell line) and BaF3 (bone marrow-derived pro-B-cell line) cells transduced to express FLT3. The effect was examined by western blot.

FLT3 (ITD, F691I) = target: T2, FLT3 (ITD, F691I) (Homo sapiens, UniProt P36888); test: KINOMEscan KdElect competitive binding assay, dual mutant FLT3 (ITD, F691I); conditions: tosylate salt; read-out: Kd, FLT3 (ITD, F691I) double mutant
T2 construct: fused on or other part: DNA tag / T7 phage display tag for qPCR detection
Description: Competitive binding assay.
The lysates were then centrifuged and filtered.

FLT3-ITD = target: T3, FLT3-ITD (Homo sapiens, UniProt P36888); test: Inhibition of FLT3-ITD phosphorylation by western blot in Molm-13 cells; assay type: cell-based; conditions: tosylate salt, read-out: IC50, inhibition of phosphorylation of the FLT3-ITD receptor
T3 sequence (P36888 with tags, fused parts or gaps DUP594-600): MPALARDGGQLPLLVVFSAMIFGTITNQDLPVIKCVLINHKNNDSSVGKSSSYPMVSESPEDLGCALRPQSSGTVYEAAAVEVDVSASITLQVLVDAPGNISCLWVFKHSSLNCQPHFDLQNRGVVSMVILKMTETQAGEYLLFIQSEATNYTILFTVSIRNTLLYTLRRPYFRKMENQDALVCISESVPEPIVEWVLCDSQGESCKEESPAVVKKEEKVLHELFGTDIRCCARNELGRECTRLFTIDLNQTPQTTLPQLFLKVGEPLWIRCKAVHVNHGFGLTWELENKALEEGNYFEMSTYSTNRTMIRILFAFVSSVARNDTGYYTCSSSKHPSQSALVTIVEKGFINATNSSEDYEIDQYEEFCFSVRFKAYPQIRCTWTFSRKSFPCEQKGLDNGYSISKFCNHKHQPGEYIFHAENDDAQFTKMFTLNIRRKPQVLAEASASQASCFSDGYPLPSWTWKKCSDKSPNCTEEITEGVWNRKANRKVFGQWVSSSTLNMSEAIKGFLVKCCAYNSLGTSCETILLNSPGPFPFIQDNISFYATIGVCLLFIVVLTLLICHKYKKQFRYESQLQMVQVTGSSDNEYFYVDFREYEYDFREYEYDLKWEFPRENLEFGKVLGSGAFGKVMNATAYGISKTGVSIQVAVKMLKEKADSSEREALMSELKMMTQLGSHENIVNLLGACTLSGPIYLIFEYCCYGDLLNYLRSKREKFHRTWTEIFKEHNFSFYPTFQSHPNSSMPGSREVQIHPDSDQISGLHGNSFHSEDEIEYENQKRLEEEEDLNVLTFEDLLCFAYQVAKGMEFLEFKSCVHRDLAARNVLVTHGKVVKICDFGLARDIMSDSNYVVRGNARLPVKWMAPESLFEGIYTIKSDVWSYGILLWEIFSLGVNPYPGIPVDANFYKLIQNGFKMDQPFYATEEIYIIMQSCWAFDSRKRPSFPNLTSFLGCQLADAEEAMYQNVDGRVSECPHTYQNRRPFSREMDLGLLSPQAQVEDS
Procedure: as §1

pIC50 (FLT3 ITD): 8.29 | pKd (FLT3 (ITD, F691I)): 9.74 | pIC50 (FLT3-ITD): 9.15
SMILES: COCCOc1ccc2c(c1)ncn2-c1ccc2cccc(N3CCC(N)CC3)c2n1 [CP-673,451]
